“And” between values parts separate entries of the source, which are not always exact repeats. Identical values can stand only once.
Conditions: Liquid; for viscosity: Vibrating wire viscometry; for mass density: Vibrating tube method

OCCOCCOCCO [triethylene glycol]
Conditions	mass density	viscosity
303 K, 65190 kPa	–	48.95 mPa·s
303 K, 66350 kPa	–	49.26 mPa·s
303.15 K, 100 kPa	1115.2 kg/m3 and 1115.1 kg/m3	–
303.15 K, 630 kPa	1115.4 kg/m3	–
303.15 K, 1130 kPa	1115.6 kg/m3	–
303.15 K, 1620 kPa	1115.9 kg/m3	–
303.15 K, 2140 kPa	1116.1 kg/m3	–
303.15 K, 3070 kPa	1116.5 kg/m3	–
303.15 K, 5080 kPa	1117.4 kg/m3	–
303.15 K, 6960 kPa	1118.3 kg/m3	–
303.15 K, 9960 kPa	1119.6 kg/m3	–
303.15 K, 14840 kPa	1121.7 kg/m3	–
303.15 K, 19750 kPa	1123.8 kg/m3	–
303.15 K, 24670 kPa	1125.9 kg/m3	–
303.15 K, 29570 kPa	1127.9 kg/m3	–
303.15 K, 34500 kPa	1129.9 kg/m3	–
303.15 K, 39360 kPa	1131.9 kg/m3	–
303.15 K, 44300 kPa	1133.8 kg/m3	–
303.15 K, 49190 kPa	1135.7 kg/m3	–
303.15 K, 54090 kPa	1137.6 kg/m3	–
303.15 K, 58850 kPa	1139.3 kg/m3	–
303.15 K, 63890 kPa	1141.2 kg/m3	–
303.15 K, 68750 kPa	1142.9 kg/m3	–
313.15 K, 100 kPa	1107.4 kg/m3	–
313.15 K, 670 kPa	1107.6 kg/m3	–
313.15 K, 1130 kPa	1107.9 kg/m3	–
313.15 K, 1600 kPa	1108.1 kg/m3	–
313.15 K, 2080 kPa	1108.3 kg/m3	–
313.15 K, 3100 kPa	1108.8 kg/m3	–
313.15 K, 5030 kPa	1109.7 kg/m3	–
313.15 K, 7010 kPa	1110.6 kg/m3	–
313.15 K, 10010 kPa	1112 kg/m3	–
313.15 K, 14880 kPa	1114.2 kg/m3	–
313.15 K, 19750 kPa	1116.4 kg/m3	–
313.15 K, 24680 kPa	1118.6 kg/m3	–
313.15 K, 29560 kPa	1120.6 kg/m3	–
313.15 K, 34510 kPa	1122.7 kg/m3	–
313.15 K, 39330 kPa	1124.7 kg/m3	–
313.15 K, 44290 kPa	1126.7 kg/m3	–
313.15 K, 49180 kPa	1128.6 kg/m3	–
313.15 K, 54160 kPa	1130.6 kg/m3	–
313.15 K, 59000 kPa	1132.4 kg/m3	–
313.15 K, 63910 kPa	1134.3 kg/m3	–
313.15 K, 68840 kPa	1136 kg/m3	–
313.26 K, 170 kPa	–	18.68 mPa·s [middle of 4 runs]
313.26 K, 510 kPa	–	18.97 mPa·s and 18.84 mPa·s and 18.73 mPa·s
313.26 K, 520 kPa	–	18.83 mPa·s
313.26 K, 930 kPa	–	18.88 mPa·s [middle of 6 runs]
313.26 K, 4460 kPa	–	19.45 mPa·s
313.26 K, 4470 kPa	–	19.52 mPa·s [middle of 4 runs]
313.26 K, 9660 kPa	–	20.02 mPa·s
313.26 K, 9670 kPa	–	20.2 mPa·s and 20.18 mPa·s
313.26 K, 19980 kPa	–	22.07 mPa·s and 21.92 mPa·s
313.26 K, 19990 kPa	–	21.69 mPa·s
313.26 K, 29400 kPa	–	23.4 mPa·s and 23.28 mPa·s
313.26 K, 29410 kPa	–	23.3 mPa·s
313.26 K, 29530 kPa	–	23.21 mPa·s
313.26 K, 29540 kPa	–	23.53 mPa·s
313.26 K, 29550 kPa	–	23.54 mPa·s
313.26 K, 29570 kPa	–	23.18 mPa·s
313.26 K, 49800 kPa	–	26.84 mPa·s
313.26 K, 49830 kPa	–	27.18 mPa·s
313.26 K, 49920 kPa	–	27.22 mPa·s
313.26 K, 49950 kPa	–	26.89 mPa·s
313.26 K, 64360 kPa	–	29.73 mPa·s
313.26 K, 64840 kPa	–	30.3 mPa·s
313.26 K, 65380 kPa	–	30.08 mPa·s
313.26 K, 66900 kPa	–	30.18 mPa·s
323.15 K, 100 kPa	1099.6 kg/m3 and 1099.5 kg/m3	–
323.15 K, 590 kPa	1099.8 kg/m3	–
323.15 K, 1140 kPa	1100 kg/m3	–
323.15 K, 1600 kPa	1100.3 kg/m3	–
323.15 K, 2080 kPa	1100.5 kg/m3	–
323.15 K, 3020 kPa	1101 kg/m3	–
323.15 K, 5050 kPa	1101.9 kg/m3	–
323.15 K, 7000 kPa	1102.9 kg/m3	–
323.15 K, 9970 kPa	1104.3 kg/m3	–
323.15 K, 14870 kPa	1106.7 kg/m3	–
323.15 K, 19780 kPa	1108.9 kg/m3	–
323.15 K, 24700 kPa	1111.2 kg/m3	–
323.15 K, 29650 kPa	1113.3 kg/m3	–
323.15 K, 34470 kPa	1115.4 kg/m3	–
323.15 K, 39340 kPa	1117.5 kg/m3	–
323.15 K, 44250 kPa	1119.6 kg/m3	–
323.15 K, 49170 kPa	1121.6 kg/m3	–
323.15 K, 54080 kPa	1123.5 kg/m3	–
323.15 K, 58970 kPa	1125.5 kg/m3	–
323.15 K, 63800 kPa	1127.3 kg/m3	–
323.15 K, 68780 kPa	1129.2 kg/m3	–
333.15 K, 100 kPa	1091.7 kg/m3	–
333.15 K, 660 kPa	1092 kg/m3	–
333.15 K, 1110 kPa	1092.2 kg/m3	–
333.15 K, 1600 kPa	1092.5 kg/m3	–

— the NIST ThermoML archive (doi:10.1016/j.fluid.2018.09.026)
